From PubChem BioAssay (NCI)
Where “and” joins values, the source holds several entries; their conditions need not be identical. Identical values can stand only once.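 Following 48 hours of exposure in 96-well plates, responses at five concentrations were used to interpolate endpoints linearly. The concentration for 50% growth inhibition is given as GI50. The concentration for full growth arrest is given as TGI.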 Where a SMILES comes first, the peptide text is derived from it. [ ]: non-standard residue; d: D form. The star is where a group is joined. ξ: configuration not given here. 4Abz = Nc1ccc(C(=O)O)cc1; ξL = CC(C)CC(N)C(=O)O; NHOH = ON*

Experiments:
Assay in all cases: DTP human tumour cell line panel, 48 h
HS 578T breast = system: HS 578T breast
MCF7 breast = system: MCF7 breast
PC-3 prostate = system: PC-3 prostate
DLD-1 colon = system: DLD-1 colon
DMS 114 small cell lung = system: DMS 114 small cell lung
HOP-18 NSCLC = system: HOP-18 NSCLC
LXFL 529 NSCLC = system: LXFL 529 NSCLC
MDA-N = system: MDA-N
RXF-631 renal = system: RXF-631 renal

SMILES	GI50 (HS 578T breast)	TGI (HS 578T breast)	GI50 (MCF7 breast)	TGI (MCF7 breast)	GI50 (PC-3 prostate)	TGI (PC-3 prostate) [µM]	TGI (DLD-1 colon) [µM]	TGI (DMS 114 small cell lung) [µM]	TGI (HOP-18 NSCLC) [µM]	TGI (LXFL 529 NSCLC) [µM]	TGI (MDA-N) [µM]	TGI (RXF-631 renal) [µM]
COC(=O)c1ccc2c(c1)[n+](=O)c(C(C)=O)c(C(F)(F)F)n2[O-]	2.37 µM	5.84 µM	1.76 µM	3.37 µM	1.64 µM	3.63						
NS(=O)(=O)OC[C@H]1O[C@@H](n2cnc3c(N[C@H]4CCc5ccccc54)ncnc32)[C@H](O)[C@@H]1O	0.432 µM	6.93 µM	0.0736 µM	> 100 µM	0.337 µM	2.14						
CCOc1cccc2cccnc12							> 100	> 100	> 100	> 100		
O=C(/C=C(\O)C(=O)O)/C=C(\O)c1ccc(Cl)cc1							> 100	> 100	> 100	> 100		
COc1ccc(/C(C#N)=C/c2nc3c(N4CCOCC4)nc(Cl)nc3n2C)cc1OC	< 0.01 µM	2.68 µM	< 0.0137 µM	1.75 µM	< 0.01 µM	1.52						
Cn1c(=O)c2[nH]c(Nc3ccccc3)nc2n(C)c1=O				> 10 µM		> 10					> 10	
CCCCCc1c(C)[nH]c(/C=C2\N=C(c3ccc[nH]3)C=C2Oc2ccc(OC)cc2)c1C	0.15 µM and 0.0228 µM	0.701 µM and 0.139 µM	0.0667 µM and 0.0358 µM	1.21 µM and 1.15 µM	0.106 µM and 0.0275 µM	1.03						
COc1ccc(C2CC(c3cccc(Nc4ccnc5cc(Cl)ccc45)c3)=NN2c2ccccc2)cc1 (stereo unspecified)	6.79 µM	73.2 µM	1.52 µM	27.4 µM	0.453 µM	95.3						
N#CC1=C(N)NC(=S)NC1c1ccc(-c2ccc(-c3nc4ccccc4s3)cc2)o1 (stereo unspecified)	> 50 µM	> 50 µM	9.71 µM	> 50 µM	31.2 µM	> 50						
C=C1c2c(C)nn(-c3ccccc3)c2N(C)C23C[C@@H]1C1(C)c4c(C)nn(-c5ccccc5)c4N(C)C(C)(C[C@H]12)C3 (stereo partly specified)	5.67 µM	80.1 µM	2.99 µM	> 100 µM	0.979 µM	> 100						
Cc1cc(CC(O)(C(F)(F)F)C(F)(F)F)cc(CC(O)(C(F)(F)F)C(F)(F)F)n1		8.23 µM				10.3					13	
S=c1sc2ccccc2n1CN1CCN(Cc2ccccc2)CC1		> 100 µM		> 100 µM		> 100						
COc1ncn(C2C=C(CO)C(O)C2O)c(=O)n1 (stereo unspecified)							> 100	> 100	> 100	> 100		
COc1ccccc1NC(=O)CC(=O)NNCC(=O)Nc1nc(-c2ccccc2)cs1							> 100	> 100	> 100	> 100		
Nc1nc(Cl)cc2c1ncn2C1OC(CO)C(O)C1O (stereo unspecified)	> 100 µM	> 100 µM	> 100 µM	> 100 µM	> 100 µM	> 100						
Cc1ccc(NC(=O)C(=O)C2C(=O)C3=C(CC2(C)C)NC2C=CC=CC2S3)c(C)c1 (stereo unspecified)		> 100 µM		> 100 µM		> 100					> 100	

SMILES	GI50 (HS 578T breast)	TGI (HS 578T breast)	GI50 (MCF7 breast)	TGI (MCF7 breast)	GI50 (PC-3 prostate)	TGI (PC-3 prostate) [µM]	TGI (DLD-1 colon) [µM]	TGI (DMS 114 small cell lung) [µM]	TGI (HOP-18 NSCLC) [µM]	TGI (LXFL 529 NSCLC) [µM]	TGI (MDA-N) [µM]	TGI (RXF-631 renal) [µM]
Oc1ccc(Br)cc1CN1CCN(Cc2ccc(Cl)cc2)CC1	28.6 µM	> 100 µM	18.4 µM	94.3 µM	23.9 µM	> 100						
NC(=O)NC1=NCCC(=O)N1CCc1c[nH]c2ccccc12		80.1 µM				28.3					60.1	
CC(C)CC(NC(=O)[C@@H]1CCCN1C(=O)CNC(=O)c1ccc(N)cc1)C(=O)N[C@H](C)C(=O)NO (stereo partly specified) (H-[4Abz]GP[ξL][dA]-{NHOH})	> 100 µM	> 100 µM	> 100 µM	> 100 µM	> 100 µM	> 100						
N=C(N)c1ccc(-c2ccc(-c3ccco3)o2)cc1	4.82 µM	24.2 µM	2.08 µM	14.3 µM	4.05 µM	17						
COC(=O)C1=C(O)C(C(=O)OC)[C@@]2(O)[C@@H](C(=O)OC)C(c3ccc(OC(=O)C(Cc4ccccc4)NC(C)=O)cc3)C[C@@H]1[C@@H]2C(=O)OC (stereo partly specified)	20.4 µM	75.3 µM	17 µM	95.3 µM	27.6 µM	91						
C=CC[n+]1c(/C=C2\Sc3ccccc3N2C)sc(-c2ccccc2)c1-c1ccccc1	0.374 µM	19.4 µM	0.286 µM	1.77 µM	0.264 µM	1.34						
O=C(c1ccc(Cl)cc1)N(C(=S)N1CCN(c2ccccc2)CC1)C1CCCCC1							> 100	> 100	> 100	> 100		
COc1cc2c(cc1OC)[C@@H]1[C@H](C2=O)c2ccc([N+](=O)[O-])cc2C(=O)N1CCCBr	5.45 µM	50.6 µM	< 0.01 µM	0.284 µM	1.19 µM	> 70.4						
CC(C)CCC[C@@H](C)C1CCC2[C@@H]3CC=C4C[C@@H](OC(=O)CCC(=O)NCC[N+](C)(C)CCCS(=O)(=O)[O-])CC[C@]4(C)C3CC[C@@]21C (stereo partly specified)							44.9	36.1	97.2	71.6		
CCOC(=O)C(=C=Cc1cccs1)C(=O)c1ccccc1							27.8		34	28.4		
COC(=O)C1=C(SC)SC2(C(=O)OC)C3C=C(C)C4C(N13)C42C(=O)OC (stereo unspecified)							> 100	> 100		> 100		
O=C(CCCCCCCCC(=O)OCCCn1cc(C(=O)NC(=O)OCc2ccccc2)c(=O)[nH]c1=O)OCCCn1cc(C(=O)NC(=O)OCc2ccccc2)c(=O)[nH]c1=O							> 100		> 100			> 100
Clc1cc(Cl)c2n[se]nc2c1									> 100			> 100
COC1=C(NC(C)=O)C(=O)c2nc3n(c2C1=O)CCC3		82.8 µM		47.1 µM		> 100	29.3	25	39.1		6.84	
COC1=CC(=O)c2c(O)c3c(c(O)c2C1=O)CC(C)(O)OC3 (stereo unspecified)		35.9 µM		7.29 µM		14.9					3.57	
